Patent US20070093520A1, “Method of treatment of diarrhea-predominant irritable bowel syndrome in a subject” (priority 2005, published 2007)

Test system: diarrhea-predominant IBS subjects
Format: in vivo, human
Details: TEAE incidence, 2 mg, Safety Population; PT
Protocol: The study was performed in approximately 150 study centers. Approximately 1600 eligible subjects were to be given cilansetron 2 mg TID. At Visit 1, pre-treatment assessments were conducted. […] Subjects were to return to the study site one month later for Visit 3 (Day 31) for their first interim assessment. […] All subjects who discontinued from the study were to have the same post-study assessments required at Visit 7 performed at their early termination visit. […]
Stool specimens were analyzed at every visit for occult blood. An independent GERB had been established to provide advice on GI AEs during the course of the study.
Adverse events were assessed at Baseline, at each clinic visit, and at the end of the study (Month 12 or the early termination visit). All AEs, which occurred during the study were followed up in accordance with good medical practice until resolved or judged no longer clinically significant, or if a condition was chronic, until fully characterized. Adverse events could occur in the specified follow-up period and, regardless of the interval since the last administration of the study medication, were treated in the same manner as an AE which occurred during the treatment with study medication. Each AE was evaluated for duration, severity, seriousness, and causal relationship to the investigational drug. The action taken and the outcome were also recorded.
Specifically, subjects who were lost to follow-up and had no post-Baseline contact with the site were excluded from the Safety population. The subjects who discontinued from the study due to lost to follow-up were identified based on the information collected on the study termination CRF page.
After the pretreatment assessment at Visit 1 (Days […] to −3), subjects were to return to the study site for a Baseline assessment and start the treatment at Visit 2 (Day 1).
For the by time-interval analyses of disposition, prevalence of AEs, and of markedly abnormal and predefined changes in laboratory values, vital signs, and ECGs, the following interval windows were used:
Adverse events that were already present prior to the first dose of cilansetron study medication but increased in severity afterwards were considered as treatment-emergent.
The 5% cutoff point was based on the incidence within higher level terms.
Subjects were counted at most once for each primary system organ class and preferred term. Serious AEs that resolved prior to receiving study medication or occurred more than 30 days after the last dose of study medication were not included in the incidence tables. A listing of all SAEs is presented; SAEs with onset prior to receiving study medication or more than 30 days after discontinuation of study medication were flagged. The listing presents lower level term and preferred term of the SAE, severity, action taken, outcome, and relationship of the SAE, start and stop date of the SAE, study day of onset of the SAE, age, race, and sex.

SMILES: Cc1nccn1C[C@H]1CCc2c(c3cccc4c3n2CCC4)C1=O [cilansetron, (R)-(−)-4,5,6,8,9,10-hexahydro-10-[(2-methyl-1H-imidazol-1-yl)methyl]-11H-pyrido-[3,2,1-jk]-carbazol-11-one]
- Cervical Disc Lesion: 1 (<1%) n (%)
- Chest Discomfort: 1 (<1%) n (%)
- Chest Pain: 12 (<1%) n (%)
- Chromaturia: 1 (<1%) n (%)
- Chronic Obstructive Airways Disease Exacerbated: 1 (<1%) n (%)
- Clavicle Fracture: 1 (<1%) n (%)
- Contusion: 2 (<1%) n (%)
- Coronary Artery Disease NOS: 2 (<1%) n (%)
- Cough: 26 (2%) n (%)
- Cystocele*: 1 (<1%) n (%)
- Dandruff: 1 (<1%) n (%)
- Depressed Mood: 1 (<1%) n (%)
- Depression: 21 (1%) n (%)
- Depression Aggravated: 6 (<1%) n (%)
- Dermatitis Allergic: 11 (<1%) n (%)
- Dermatitis Contact: 1 (<1%) n (%)
- Dermatitis NOS: 2 (<1%) n (%)
- Diabetes Mellitus NOS: 3 (<1%) n (%)
- Diabetes Mellitus Non-Insulin-Dependent: 1 (<1%) n (%)
- Difficulty in Micturition: 2 (<1%) n (%)
- Discoid Lupus Erythematosus: 1 (<1%) n (%)
- Dissociation: 1 (<1%) n (%)
- Distension NOS: 3 (<1%) n (%)
- Dry Skin: 1 (<1%) n (%)
- Dysmenorrhoea*: 2 (<1%) n (%)
- Dyspnoea Exacerbated: 2 (<1%) n (%)
- Dyspnoea NOS: 5 (<1%) n (%)
- Dysuria: 5 (<1%) n (%)
- Eczema: 3 (<1%) n (%)
- Epidermal Cyst: 1 (<1%) n (%)
- Epistaxis: 2 (<1%) n (%)
- Erectile Dysfunction NOS*: 2 (<1%) n (%)
- Erythema: 1 (<1%) n (%)
- Extrasystoles NOS: 2 (<1%) n (%)
- Face Injury: 2 (<1%) n (%)
- Fall: 2 (<1%) n (%)
- Fatigue: 20 (1%) n (%)
- Fear of Falling: 1 (<1%) n (%)
- Fibula Fracture: 1 (<1%) n (%)
- Fluid Retention: 1 (<1%) n (%)
- Food Intolerance NOS: 1 (<1%) n (%)
- Foot Fracture: 2 (<1%) n (%)
- Forearm Fracture: 1 (<1%) n (%)
- Foreign Body in Eye: 1 (<1%) n (%)
- Genital Discharge: 1 (<1%) n (%)
- Genital Pain NOS: 1 (<1%) n (%)
- Glycosuria: 1 (<1%) n (%)
- Gout: 1 (<1%) n (%)
- Groin Pain: 2 (<1%) n (%)
- Gynaecomastia*: 1 (<1%) n (%)
- Haematuria: 2 (<1%) n (%)
- Hand Fracture: 1 (<1%) n (%)
- Hangover: 1 (<1%) n (%)
- Head Injury: 3 (<1%) n (%)
- Heat Rash: 1 (<1%) n (%)
- Hoarseness: 1 (<1%) n (%)
- Hunger: 1 (<1%) n (%)
- Hypercholesterolaemia: 8 (<1%) n (%)
- Hypercholesterolaemia Aggravated: 1 (<1%) n (%)
- Hyperglycaemia NOS: 4 (<1%) n (%)
- Hyperkalaemia: 1 (<1%) n (%)
- Hyperlipidaemia NOS: 3 (<1%) n (%)
- Hypertriglyceridaemia: 8 (<1%) n (%)
- Hypokalaemia: 3 (<1%) n (%)
- Hyponatraemia Aggravated: 1 (<1%) n (%)
- Hypotrichosis: 4 (<1%) n (%)
- Influenza Like Illness: 8 (<1%) n (%)
- Inguinal Mass: 1 (<1%) n (%)
- Injury NOS: 1 (<1%) n (%)
- Insomnia: 20 (1%) n (%)
- Intervertebral Disc Herniation: 2 (<1%) n (%)
- Joint Dislocation: 1 (<1%) n (%)
- Joint Sprain: 3 (<1%) n (%)
- Joint Stiffness: 2 (<1%) n (%)
- Joint Swelling: 2 (<1%) n (%)
- Laceration: 2 (<1%) n (%)
- Laryngitis NOS: 3 (<1%) n (%)
- Lethargy: 1 (<1%) n (%)
- Leukocyturia: 2 (<1%) n (%)
- Libido Decreased: 1 (<1%) n (%)
- Ligament Injury NOS: 4 (<1%) n (%)
- Limb Injury NOS: 8 (<1%) n (%)
- Localised Osteoarthritis: 2 (<1%) n (%)
- Loin Pain: 1 (<1%) n (%)
- Loss of Libido: 1 (<1%) n (%)
- Major Depressive Disorder NOS: 1 (<1%) n (%)
- Malaise: 2 (<1%) n (%)
- Maxillary Sinusitis: 5 (<1%) n (%)
- Menopausal Symptoms*: 1 (<1%) n (%)
- Menorrhagia*: 1 (<1%) n (%)
- Menses Delayed*: 1 (<1%) n (%)
- Mental Disorder NOS: 1 (<1%) n (%)
- Monoarthritis: 2 (<1%) n (%)
- Mood Alteration NOS: 1 (<1%) n (%)
- Mood Swings: 2 (<1%) n (%)
- Muscle Cramps: 6 (<1%) n (%)
- Muscle Injury NOS: 2 (<1%) n (%)
- Muscle Spasms: 2 (<1%) n (%)
- Muscle Strain: 7 (<1%) n (%)
- Muscle Tightness: 1 (<1%) n (%)
- Muscle Twitching: 1 (<1%) n (%)
- Musculoskeletal Chest Pain: 2 (<1%) n (%)
- Musculoskeletal Discomfort: 1 (<1%) n (%)
- Musculoskeletal Pain: 1 (<1%) n (%)
- Myalgia: 11 (<1%) n (%)
- Myocardial Ischaemia: 4 (<1%) n (%)
- Nail Discolouration: 1 (<1%) n (%)
- Nail Disorder NOS: 1 (<1%) n (%)
- Nasal Congestion: 2 (<1%) n (%)
- Nasal Ulcer: 1 (<1%) n (%)
- Neck Injury NOS: 1 (<1%) n (%)
- Neck Pain: 8 (<1%) n (%)
- Neck Stiffness: 1 (<1%) n (%)
